Test [1] concerns peripheral blood immune cells. As to the kind of experiment: Peripheral blood lymphocytes in C57BL/6 mice, Cell Dyn hematology analyzer. Format: in vivo. Particulars: for inhibition in vivo at 100 mg/kg: Mus musculus, Lymphocyte. As for the experimental part:
The effect of the Bcl-2 selective/Bcl-XL sparing compounds on peripheral blood immune cells was also evaluated in C57BL/6 mice. Mice were treated four days with individual compounds (100 mg/kg, orally every day) and cell numbers were measured with a Cell Dyn hematology analyzer.

The target of another test is T1, Bcl-w (Homo sapiens, UniProt Q92843).
T1 sequence (Q92843 1-193): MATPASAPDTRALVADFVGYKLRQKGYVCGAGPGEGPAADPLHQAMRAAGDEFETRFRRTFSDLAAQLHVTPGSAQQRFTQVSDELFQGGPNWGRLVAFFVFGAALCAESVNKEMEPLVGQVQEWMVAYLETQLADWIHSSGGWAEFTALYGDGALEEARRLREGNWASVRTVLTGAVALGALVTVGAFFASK
As to the kind of experiment: TR FRET competitive binding affinity, Bcl-w. As to conditions: read-out: Target Affinity TR FRET, Bcl-w. The protocol: (§1) A comparison of the binding affinity for each of the compounds was performed to determine target affinity, as measured by Time-Resolved Fluorescence Resonance Energy Transfer (TR FRET).

The next test deals with Mcl-1 (Homo sapiens, UniProt Q07820). As to the kind of experiment: TR FRET competitive binding affinity, Mcl-1. As to conditions: read-out: Target Affinity TR FRET, Mcl-1. As for the experimental part: as §1
Sequence of Mcl-1 (Q07820 whole entry): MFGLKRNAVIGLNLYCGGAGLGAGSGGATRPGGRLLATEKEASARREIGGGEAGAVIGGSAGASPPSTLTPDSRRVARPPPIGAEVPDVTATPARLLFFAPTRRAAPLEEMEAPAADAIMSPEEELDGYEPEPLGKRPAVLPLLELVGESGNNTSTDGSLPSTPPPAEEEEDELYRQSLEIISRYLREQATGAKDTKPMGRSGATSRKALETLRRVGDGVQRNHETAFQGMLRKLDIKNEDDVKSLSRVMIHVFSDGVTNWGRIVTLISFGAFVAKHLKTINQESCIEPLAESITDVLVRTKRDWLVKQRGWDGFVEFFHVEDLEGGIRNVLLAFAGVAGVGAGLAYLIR
In general terms: Time-resolved FRET reads energy transfer from a long-lived donor to a nearby acceptor.

The next test has as its system H146 cells. As to the kind of experiment: Cellular efficacy in Bcl-XL dependent tumor cell line H146. The class given is cell-based. As to conditions: Homo sapiens, NCI-H146; 10% HS.
The test system of a further test is RS4;11 cells. As to the kind of experiment: Cellular efficacy in Bcl-2 dependent tumor cell line RS4;11. Format: cell-based, human. Particulars: Homo sapiens, RS4-11; 10% HS.
A further test has as its target Bcl-XL (Homo sapiens, UniProt Q07817). As to the kind of experiment: TR FRET competitive binding affinity, Bcl-XL. As to conditions: read-out: Target Affinity TR FRET, Bcl-XL. The protocol: as §1
Test [2] relates to spontaneous (NZB×NZW)F1 murine model of lupus. As to the kind of experiment: Spontaneous (NZB×NZW)F1 murine model of lupus: proteinuria, survival, lymphopenia. Format: in vivo, (NZB×NZW)F1 mice. The source says:
(See Liu, K. and C. Mohan, What do mouse models teach us about human SLE? Clin Immunol, 2006. 119(2): p. 123-30) This model has been well-characterized with respect to the patho-physiological changes analogous to those of human SLE. […] Renal histopathological changes include severe glomerulonephritis, mesangial and peripheral proliferative changes, capillary membrane thickening, tubular atrophy, and infiltration of lymphocytes and monocytes/macrophages as in the majority of human SLE patients. These changes result in disruption of kidney function as evidenced by severe proteinuria (PU) greater than 300 mg/dL as measured by albumin sticks, followed by mortality as measured by survival. […] (See Gelfand, M. C. and A. D. Steinberg, Therapeutic studies in NZB-W mice. II. Relative efficacy of azathioprine, cyclophosphamide and methylprednisolone. Arthritis Rheum, 1972. 15(3): p. 247-52; and Ramos, M. A., et al., Modulation of autoantibody production by mycophenolate mofetil: effects on the development of SLE in (NZB×NZW)F1 mice. Nephrol Dial Transplant, 2003. 18(5): p. 878-83)
(NZB×NZW)F1 females were purchased from The Jackson Laboratory (Bar Harbor, Me., USA) and maintained in a conventional animal housing facility throughout the experiment. […] Proteinuria (PU) and survival were monitored weekly, followed by biweekly measurement of lymphocyte and platelet counts, and anti-ds DNA production. PK parameters were also measured throughout the study. Impact on IgG deposition and renal pathology were assessed at the conclusion of the study. Severe PU was defined by two consecutive weekly measurements of PU 300 mg/dl using Albustix test strips (VWR). When mice became moribund, they were sacrificed according to Institutional Animal Care and Use Committee protocols. PU and survival data were presented as Kaplan-Meyer survival curves using Graphpad Prism software and group differences were considered significant at the level of p<0.05. Histologic scores were analyzed using ANOVA analysis. Anti-ds DNA were analyzed using one-way ANOVA analysis and Tukey post-test.

The next test relates to FL5.12-Bcl-XL cells. As to the kind of experiment: Cellular efficacy in FL5.12 cells dependent on Bcl-XL. Particulars: Mus musculus, 3% FBS. Format: cell-based, murine.
The test system of the next test is FL5.12-Bcl-2 cells. As to the kind of experiment: Cellular efficacy in FL5.12 cells dependent on Bcl-2. As to conditions: Mus musculus, 3% FBS. The class given is cell-based, murine.
For a further test, the target named is Bcl-2 (Homo sapiens, UniProt P10415). As to the kind of experiment: TR FRET competitive binding affinity, Bcl-2. Particulars: read-out: Target Affinity TR FRET, Bcl-2. As for the experimental part:
as §1

The mark [3] stands for this setting: 24 h, 1 oral dose of 100 mg/kg, read-out: Day 1 % Reduction vs. Vehicle.
Where [4] appears, read: 96 h, 4 oral doses of 100 mg/kg, read-out: Day 4 % Reduction vs. Vehicle.

Read-outs that look alike come from different tables or passages of the source. Marks after values point to notes of the source that are not given here.

Sequence of Bcl-XL (Q07817 whole entry): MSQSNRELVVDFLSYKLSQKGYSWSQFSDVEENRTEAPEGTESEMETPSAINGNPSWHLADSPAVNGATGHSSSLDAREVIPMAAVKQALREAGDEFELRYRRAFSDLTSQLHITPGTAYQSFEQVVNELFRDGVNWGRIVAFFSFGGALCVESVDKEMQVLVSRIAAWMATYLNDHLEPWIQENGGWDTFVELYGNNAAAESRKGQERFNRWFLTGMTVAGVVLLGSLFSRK
Sequence of Bcl-2 (P10415 whole entry): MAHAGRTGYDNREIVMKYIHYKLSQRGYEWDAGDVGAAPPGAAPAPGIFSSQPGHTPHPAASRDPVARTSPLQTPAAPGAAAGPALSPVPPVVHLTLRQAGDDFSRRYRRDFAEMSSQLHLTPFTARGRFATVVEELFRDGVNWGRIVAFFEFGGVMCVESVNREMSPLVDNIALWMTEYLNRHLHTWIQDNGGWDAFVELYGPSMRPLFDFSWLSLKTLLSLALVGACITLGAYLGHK

Consider `CC1(C)CCC(CN2CCN(c3ccc(C(=O)NS(=O)(=O)c4cnc(OCC5(F)CCN(C6COC6)CC5)c(Cl)c4)c(Oc4cnc5[nH]ccc5c4)c3)CC2)=C(c2ccc(Cl)cc2)C1` [Compound 13, N-[(5-chloro-6-{[4-fluoro-1-(oxetan-3-yl)piperidin-4-yl]methoxy}pyridin-3-yl)sulfonyl]-4-(4-{[2-(4-chlorophenyl)-4,4-dimethylcyclohex-1-en-1-yl]methyl}piperazin-1-yl)-2-(1H-pyrrolo[2,3-b]pyridin-5-yloxy)benzamide], for which the “Day 1 Lymphocytes” value in test [1] (1 oral dose of 100 mg/kg) was 2.32 ×10^6. In addition, the “Day 4 lymphocytes” value in [1] (4 oral doses of 100 mg/kg) is on record as 2.61 ×10^6. Further, the inhibition in vivo at 100 mg/kg in test [1] (setting [3]) is 64%; in [1] (setting [4]), 70%. The Ki on Bcl-w is 167 nM; on Mcl-1 it was above 440 nM; at Bcl-XL, 9 nM. Besides, the results for the EC50 in the test on H146 cells and in the test with RS4;11 cells were 3160 nM and 7 nM, respectively.

On to `CC1(C)CCC(CN2CCN(c3ccc(C(=O)NS(=O)(=O)c4ccc(N[C@H]5CC[C@H](N6CCOCC6)CC5)c([N+](=O)[O-])c4)c(Oc4cnc(N)c(Cl)c4)c3)CC2)=C(c2ccc(Cl)cc2)C1` [Compound 17, Trans-2-[(6-amino-5-chloropyridin-3-yl)oxy]-4-(4-{[2-(4-chlorophenyl)-4,4-dimethylcyclohex-1-en-1-yl]methyl}piperazin-1-yl)-N-({4-[(4-morpholin-4-ylcyclohexyl)amino]-3-nitrophenyl}sulfonyl)benzamide], for which the “Day 1 Lymphocytes” value in [1] (1 oral dose of 100 mg/kg) is 1.84 ×10^6. Moreover, the “Day 4 lymphocytes” value in [1] (4 oral doses of 100 mg/kg) is 1.30 ×10^6. Further, the inhibition in vivo at 100 mg/kg amounted to 77% in [1] (setting [3]) and 83% in test [1] (setting [4]). Besides, the Ki at Bcl-w was 357 nM; at Mcl-1 it was above 440 nM; on Bcl-XL it was 12 nM; at Bcl-2 it was below 0.01 nM. Besides, the “% Mice with PU < 300 mg/dL” value in [2] (Week 39, 1 mg/kg daily oral) is 58%; in test [2] (Week 39, 3 mg/kg daily oral) it was 67%; in test [2] (Week 39, 10 mg/kg daily oral) it was 71%; in test [2] (Week 39, 30 mg/kg daily oral), 86%; in [2] (Week 39, 100 mg/kg daily oral) it was 100* %. Besides, the “% Survival” value turned out to be 67% in test [2] (Week 39, 1 mg/kg daily oral); 92% in test [2] (Week 39, 3 mg/kg daily oral); 93% in test [2] (Week 39, 10 mg/kg daily oral); 100% in test [2] (Week 39, 30 mg/kg daily oral); 100% in test [2] (Week 39, 100 mg/kg daily oral). For the same compound, the EC50 (commonly the midpoint of the concentration-response curve) in the test with H146 cells came out at 3240 nM; in the test with RS4;11 cells, 17 nM; in the test with FL5.12-Bcl-XL cells, 65 nM; in the test with FL5.12-Bcl-2 cells, 4 nM.
